From patent US12662674B2, “RNA nanoparticle for liver cancer treatment” (OHIO STATE INNOVATION FOUNDATION, priority 2019, dated 2026)

System: HepG2 cells
Test: HSA synergy modeling of cell viability
Details: HSA model, Combenefit; FIG. 17C: 6WJ/HTL/miR122 and 6WJ/HTL/PTX nanoparticles
Description: To study the synergy between miR122 and PTX in cytotoxicity induction, an MTT cell viability assay was first performed. […] Cell viability was used as an indicator to quantify the correlation of synergy between miR122 and PTX using Highest Single Agent (HSA) synergy modeling. The data was processed and quantified using Combenefit software to obtain the HSA synergy score between miR122 and PTX (FIG. 17C). […] The number represented the co-efficiency of synergy.
Cell viability was studied following MTT protocol in cytotoxicity assay. The result was presented by Prism 8.0 (Graph Pad). The viability result was entered into HSA synergy modeling by Combenefit and plotted by Prism 8.0.

## CC(=O)O[C@H]1C(=O)[C@@]2(C)[C@H]([C@H](OC(=O)c3ccccc3)[C@]3(O)C[C@H](OC(=O)[C@H](O)[C@@H](NC(=O)c4ccccc4)c4ccccc4)C(C)=C1C3(C)C)[C@]1(OC(C)=O)CO[C@@H]1C[C@@H]2O [PTX, Paclitaxel]
  concentration of highest synergy in cytotoxic induction: 3.2 µM
